Experimental findings from patent US8889591B2, “Herbicidal compositions comprising 4-amino-3-chloro-5-fluoro-6-(4-chloro-2-fluoro-3-methoxyphenyl)pyridine-2-carboxylic acid or a derivative thereof and bromobutide, daimuron, oxaziclomefone or pyributicarb” (Dow Agrosciences LLC, priority 2012, dated 2014) are described below.

Structures are written as SMILES.

One test deals with CYPRO. As to the kind of experiment: In-water applied greenhouse weed control, transplanted paddy rice system. The test is classed as in vivo, Cyperus rotundus L. Conditions: in-water application. The method, then: (§1) Weed seeds or nutlets of the desired test plant species were planted in puddled soil (mud) prepared by mixing a shredded, non-sterilized mineral soil (50.5 percent silt, 25.5 percent clay, and 24 percent sand, with a pH of about 7.6 and an organic matter content of about 2.9 percent) and water at a 1:1 volumetric ratio. The prepared mud was dispensed in 365 mL aliquots into 16-ounce (oz.) non-perforated plastic pots with a surface area of 86.59 square centimeters (cm^2) leaving a headspace of 3 centimeters (cm) in each pot. Mud was allowed to dry overnight prior to planting or transplanting. Rice seeds were planted in Sun Gro MetroMix® 306 planting mixture, which typically has a pH of 6.0 to 6.8 and an organic matter content of about 30 percent, in plastic plug trays. Seedlings at the second or third leaf stage of growth were transplanted into 840 mL of mud contained in 32-oz. non-perforated plastic pots with a surface area of 86.59 cm^2 4 days prior to herbicide application. The paddy was created by filling the headspace of the pots with 2.5 to 3 cm of water. When required to ensure good germination and healthy plants, a fungicide treatment and/or other chemical or physical treatment was applied. The plants were grown for 4-22 days in a greenhouse with an approximate 14 h photoperiod which was maintained at about 29° C. during the day and 26° C. during the night. Nutrients were added as Osmocote® (19:6:12, N:P:K+ minor nutrients) at 2 g per 16-oz. pot and 4 g per 32-oz. pot. Water was added on a regular basis to maintain the paddy flood, and supplemental lighting was provided with overhead metal halide 1000-Watt lamps as necessary. The plants were employed for testing when they reached the first through fourth true leaf stage.
(§2) Treatments consisted of the acid or esters of 4-amino-3-chloro-5-fluoro-6-(4-chloro-2-fluoro-3-methoxy-phenyl)pyridine-2-carboxylic acid (compound A) each formulated as an SC and various herbicidal components alone and in combination. Forms of compound A were applied on an acid equivalent basis.
(§3) Other herbicidal components were applied on an active ingredient basis and included daimuron formulated as an EC, bromobutide (technical grade material), and oxaziclomefone (technical grade material).
(§4) Treatment requirements for each compound or herbicidal component were calculated based upon the rates being tested, the concentration of active ingredient or acid equivalent in the formulation, an application volume of 2 mL per component per pot, and an application area of 86.59 cm^2 per pot.
(§5) For formulated compounds, a measured amount was placed in an individual 100 or 200 mL glass vial and was dissolved in a volume of 1.25% (v/v) Agri-Dex® crop oil concentrate to obtain application solutions.
(§6) For technical grade compounds, a weighed amount was placed in an individual 100 to 200 mL glass vial and was dissolved in a volume of acetone to obtain concentrated stock solutions. […] The concentrated stock solutions obtained were diluted with an equivalent volume of an aqueous mixture containing 2.5% (v/v) crop oil concentrate so that the final application solutions contained 1.25% (v/v) crop oil concentrate.
(§7) Applications were made by injecting, with a pipetter, appropriate amounts of the application solutions, individually and sequentially, into the aqueous layer of the paddy. Control plants were treated in the same manner with the solvent blank. Applications were made so that all treated plant material received the same concentrations of acetone and crop oil concentrate.
(§8) The treated plants and control plants were placed in a greenhouse as described above and water was added as needed to maintain a paddy flood. After approximately 3 weeks the condition of the test plants as compared with that of the untreated plants was determined visually and scored on a scale of 0 to 100 percent where 0 corresponds to no injury or growth inhibition and 100 corresponds to complete kill. […]

The next test deals with FIMMI. The test is described as above. Format: in vivo, Fimbristylis miliacea (L.) Vahl. The following applies: in-water application. The method, then:
as §1, §2, §3, §4, §5, §6, §7, §8

Another test deals with BRAPP. In words: Postemergence foliar-applied greenhouse weed control, direct-seeded rice system. Format: in vivo. Conditions: Compound A Acid 4.38 gae/ha alone. From the text: (§9) Seeds or nutlets of the desired test plant species were planted in a soil matrix prepared by mixing a loam or sandy loam soil (e.g., 28.6 percent silt, 18.8 percent clay, and 52.6 percent sand, with a pH of about 5.8 and an organic matter content of about 1.8 percent) and calcareous grit in an 80 to 20 ratio. The soil matrix was contained in plastic pots with a volume of 1 quart and a surface area of 83.6 square centimeters (cm^2). When required to ensure good germination and healthy plants, a fungicide treatment and/or other chemical or physical treatment was applied. The plants were grown for 8-22 days in a greenhouse with an approximate 14 h photoperiod which was maintained at about 29° C. during the day and 26° C. during the night. Nutrients (Peters Excel® 15-5-15 5-Ca 2-Mg and iron chelate) were applied in the irrigation solution as needed and water was added on a regular basis. Supplemental lighting was provided with overhead metal halide 1000-Watt lamps as necessary. The plants were employed for testing when they reached the first through fourth true leaf stage.
(§10) Treatments consisted of the acid or esters of 4-amino-3-chloro-5-fluoro-6-(4-chloro-2-fluoro-3-methoxy-phenyl)pyridine-2-carboxylic acid (Compound A), each formulated as an SC (suspension concentrate), and various herbicidal components alone and in combination. Forms of compound A were applied on an acid equivalent basis.
(§11) Other herbicidal components were applied on an active ingredient basis and included diamuron formulated as an EC (emulsifiable concentrate) and oxaziclomefone (technical grade material).
(§12) Treatment requirements were calculated based upon the rates being tested, the concentration of active ingredient or acid equivalent in the formulation, and a 12 mL application volume at a rate of 187 L/ha.
(§13) For treatments comprised of formulated compounds, measured amounts of compounds were placed individually in 25 mL glass vials and diluted in a volume of 1.25% (v/v) Agri-Dex® crop oil concentrated to obtain 12× stock solutions. […] Application solutions were prepared by adding an appropriate amount of each stock solution (e.g., 1 mL) and diluted to the appropriate final concentrations with the addition of 10 mL of an aqueous mixture of 1.25% (v/v) crop oil concentrate so that the final spray solutions contained 1.25+/−0.05% (v/v) crop oil concentrate.
(§14) For treatments comprised of technical compounds, weighed amounts can be placed individually in 25 mL glass vials and dissolved in a volume of 97:3 v/v acetone/DMSO to obtain 12× stock solutions. […] Application solutions can be prepared by adding an appropriate amount of each stock solution (e.g., 1 mL) and diluted to the appropriate final concentrations with the addition of 10 mL of an aqueous mixture of 1.5% (v/v) crop oil concentrate so that the final spray solutions contain 1.25% (v/v) crop oil concentrate. When technical materials are used, the concentrated stock solutions can be added to the spray solutions so that the final acetone and DMSO concentrations of the application solutions are 16.2% and 0.5%, respectively.
(§15) For treatments comprised of formulated and technical compounds, weighed amounts of the technical materials were placed individually in 25 mL glass vials and dissolved in a volume of 97:3 v/v acetone/DMSO to obtain 12× stock solutions, and measured amounts of the formulated compounds were placed individually in 25 mL glass vials and diluted in a volume of 1.5% (v/v) crop oil concentrate or water to obtain 12× stock solutions. […] Application solutions were prepared by adding an appropriate amount of each stock solution (e.g., 1 mL) and diluted to the appropriate final concentrations with the addition of an appropriate amount of an aqueous mixture of 1.5% (v/v) crop oil concentrate so that the final spray solutions contained 1.25% (v/v) crop oil concentrate. […]

The subject of the next test is LEFCH. The test is described as above. Format: in vivo, Leptochloa chinensis (L.) Nees.
Source text: as §9, §10, §11, §12, §13, §14, §15

The subject of the next test is ECHOR. In words: In-water applied greenhouse weed control, transplanted paddy rice system. Format: in vivo, Echinochloa oryzoides (Ard.) Fritsch. Conditions: in-water application. The protocol: as §1, §2, §3, §4, §5, §6, §7, §8
For the next test, the system named is ECHCO. In words: Postemergence foliar-applied greenhouse weed control, direct-seeded rice system. Format: in vivo, Echinochloa colona (L.) Link.
Source text: as §9, §10, §11, §12, §13, §14, §15

Another test relates to ECHCG. The description is as above. The test is classed as in vivo, Echinochloa crusgalli (L.) Beauv.
Source text: as §9, §10, §11, §12, §13, §14, §15

The test system of the next test is IPOHE. Described as above. The test is classed as in vivo, Ipomoea hederacea Jacq.
Source text: as §9, §10, §11, §12, §13, §14, §15

The mark [1] stands for this setting: Compound A Acid 4.38 gae/ha alone.
Where [2] appears, read: Compound A Acid 8.75 gae/ha alone.
Setting [3] is: Compound A Acid 17.5 gae/ha alone.
Where [4] appears, read: Compound A Acid 35 gae/ha alone.

In the case of `CC(C)(NC(=O)C(Br)C(C)(C)C)c1ccccc1` (centres unmarked) [Bromobutide, 2-bromo-3,3-dimethyl-N-(1-methyl-1-phenylethyl)butanamide], the “Visual Weed Control (%) - 19 DAA CYPRO Obs” value in the test with CYPRO (Bromobutide 225 gai/ha alone) and in the test with CYPRO (Bromobutide 450 gai/ha alone) was 0% each time. The entries for the “Visual Weed Control (%) - 19 DAA FIMMI Obs” value with FIMMI (Bromobutide 225 gai/ha alone) and in the test on FIMMI (Bromobutide 450 gai/ha alone) were 0% and 15%, respectively.
As for `COc1c(Cl)ccc(-c2nc(C(=O)O)c(Cl)c(N)c2F)c1F` [Compound A Acid, 4-amino-3-chloro-6-(4-chloro-2-fluoro-3-methoxyphenyl)-5-fluoropyridine-2-carboxylic acid], the “Visual Weed Control (%) - 20 DAA BRAPP Obs” value with BRAPP is given as 10%. The “Visual Weed Control (%) - 20 DAA LEFCH Obs” value in the test with LEFCH (setting [1]) was found to be 0%; in the test with LEFCH (setting [2]), 20%; with LEFCH (setting [3]), 50%. For the same compound, the figures for the “Visual Weed Control (%) - 21 DAA CYPRO Obs” value in the test with CYPRO (setting [3]) and with CYPRO (setting [4]) were 40% and 70%, respectively. In addition, the entries for the “Visual Weed Control (%) - 20 DAA ECHOR Obs” value in the test on ECHOR (setting [2]), in the test with ECHOR (setting [3]) and with ECHOR (setting [4]) were 20%, 30% and 40%, respectively. Further, the “Visual Weed Control (%) - 20 DAA ECHCO Obs” value in the test on ECHCO (setting [1]) is 50%; with ECHCO (setting [2]), 75%; with ECHCO (setting [3]), 90%. The “Visual Weed Control (%) - 20 DAA ECHCG Obs” value in the test on ECHCG (setting [1]) is 25%; in the test on ECHCG (setting [2]) it was 80%. In addition, the “Visual Weed Control (%) - 20 DAA IPOHE Obs” value with IPOHE (setting [1]) amounted to 10%; with IPOHE (setting [2]) it was 35%.
